# Assay results as given in the Kinase Knowledgebase extract (Sharma et al. 2016).
# Molecular target: CDK2 (human) (UniProt P24941)
# Experiment: Enzyme Assay
row,Compound,IC50 [nM]
1,CC(C)c1cnn2c(NCc3ccccc3-n3cccn3)nc(OC3C[C@H]4CNC[C@@H]34)nc12 (stereo partly specified),50 to 500
2,CC(C)c1cnn2c(NCc3cccc4c3cnn4C)nc(O[C@@H]3CCCNC3)nc12,≤ 50
3,CC(C)c1cnn2c(NCc3ccccc3Br)nc(O[C@@H]3CCCNC3)nc12,50 to 500
4,CC(C)c1cnn2c(NCc3ccccc3C(N)=O)nc(O[C@@H]3CCCNC3)nc12,50 to 500
5,CC(C)c1cnn2c(NCc3ccccc3-n3cncn3)nc(OC3CCNCC3)nc12,50 to 500
6,CC(C)c1cnn2c(NCc3ccccc3-n3cccn3)nc(NC3CCNC3)nc12 (stereo unspecified),50 to 500
7,CC(C)c1cnn2c(NCc3ccc(F)cc3-n3cccn3)nc(O[C@@H]3CCCNC3)nc12,≤ 50
8,CC(C)c1cnn2c(NCc3ccccc3-n3cccn3)nc(OC3C=CCNC3)nc12 (stereo unspecified),50 to 500
9,CNC1CCN(c2nc(NCc3ccccc3-n3cccn3)n3ncc(C(C)C)c3n2)CC1,50 to 500
10,COc1ccccc1CNc1nc(OC2CCN(C)CC2)nc2c(C(C)C)cnn12,50 to 500
11,CC(C)c1cnn2c(NCc3ccccc3-n3cccn3)nc(OC3CCNCC3)nc12,50 to 500
12,CC(C)c1cnn2c(NCc3cccc4ccncc34)nc(O[C@@H]3CCCNC3)nc12,50 to 500
13,CC(C)c1cnn2c(NCc3ccccc3-n3cc(Cl)cn3)nc(O[C@@H]3CCCNC3)nc12,50 to 500
14,CC(C)c1cnn2c(NCc3ccccc3-n3cncn3)nc(OC3CCN(C)CC3)nc12,50 to 500
15,CC(C)c1cnn2c(NCc3ccccc3OS(C)(=O)=O)nc(O[C@@H]3CCCNC3)nc12,50 to 500
16,CNC(=O)c1ccccc1CNc1nc(O[C@@H]2CCCNC2)nc2c(C(C)C)cnn12,50 to 500
17,CC(C)c1cnn2c(NCc3ccccc3-n3cccn3)nc(O[C@@H]3CCNC3)nc12,≤ 50
18,CC(C)c1cnn2c(NCc3c(F)cccc3-n3cccn3)nc(O[C@@H]3CCCNC3)nc12,50 to 500
19,CC(C)c1cnn2c(NCc3ccccc3OC(F)F)nc(OC3CCN(C)CC3)nc12,50 to 500

row,Compound,IC50 [nM]
1,CC(C)c1cnn2c(NCc3ccccc3S(=O)(=O)N3CCCC3)nc(O[C@@H]3CCCNC3)nc12,50 to 500
2,CNS(=O)(=O)c1ccccc1CNc1nc(O[C@@H]2CCCNC2)nc2c(C(C)C)cnn12,50 to 500
3,CC(C)c1cnn2c(NCc3ccccc3S(=O)(=O)N(C)C)nc(O[C@@H]3CCCNC3)nc12,50 to 500
4,CC(C)c1cnn2c(NCc3ccccc3-c3nnn(C)n3)nc(O[C@@H]3CCCNC3)nc12,≤ 50
5,CC(C)c1cnn2c(NCc3ccccc3-c3nnnn3C)nc(O[C@@H]3CCCNC3)nc12,50 to 500
6,CC(C)Oc1ccccc1CNc1nc(O[C@@H]2CCCNC2)nc2c(C(C)C)cnn12,50 to 500
7,CC(C)c1cnn2c(NCc3cc(F)ccc3-n3cccn3)nc(O[C@@H]3CCCNC3)nc12,≤ 50
8,CC(C)c1cnn2c(NCc3ccccc3N3CCCC3=O)nc(O[C@@H]3CCCNC3)nc12,50 to 500
9,CC(C)c1cnn2c(NCc3ccccc3C(F)(F)F)nc(OC3CCN(C)CC3)nc12,≤ 50
10,CC(C)c1cnn2c(NCc3ccccc3-n3cccn3)nc(NC3CCCNC3)nc12 (stereo unspecified),50 to 500
11,CC(C)c1cnn2c(NCc3ccccc3-n3cncn3)nc(N[C@@H]3CCCNC3)nc12,≤ 50
12,CC(C)c1cnn2c(NCc3ccccc3-c3ccccn3)nc(O[C@@H]3CCCNC3)nc12,50 to 500
13,CC(C)c1cnn2c(NCc3ccccc3-n3cccn3)nc([S+]([O-])C3CCNCC3)nc12 (stereo unspecified),50 to 500
14,CSc1ccccc1CNc1nc(O[C@@H]2CCCNC2)nc2c(C(C)C)cnn12,50 to 500
15,CC(C)c1cnn2c(NCc3ccccc3S(=O)(=O)N3CCN(C)CC3)nc(O[C@@H]3CCCNC3)nc12,50 to 500
16,CC(C)c1cnn2c(NCc3cccc4cc[n+]([O-])cc34)nc(O[C@@H]3CCCNC3)nc12,50 to 500
17,CC(C)c1cnn2c(NCc3ccccc3S(C)(=O)=O)nc(O[C@@H]3CCCNC3)nc12,50 to 500
18,CC(C)c1cnn2c(NCc3ccccc3OS(=O)C(C)(C)C)nc(O[C@@H]3CCCNC3)nc12 (stereo partly specified),50 to 500
19,CC(C)c1cnn2c(NCc3cccc(F)c3-n3cccn3)nc(O[C@@H]3CCCNC3)nc12,≤ 50

row,Compound,IC50 [nM]
1,CC(C)c1cnn2c(NCc3ccccc3-c3cccs3)nc(OC3CCNCC3)nc12,50 to 500
2,CC(C)c1cnn2c(NCc3ccccc3[S+](C)[O-])nc(O[C@@H]3CCCNC3)nc12 (stereo partly specified),50 to 500
3,CC(C)c1cnn2c(NCc3ccccc3-n3ccnc3)nc(O[C@@H]3CCNC3)nc12,50 to 500
4,CC(C)c1cnn2c(NCc3cccc4cccnc34)nc(O[C@@H]3CCCNC3)nc12,50 to 500
5,CC(C)c1cnn2c(NCc3cccc(Cl)c3Cl)nc(O[C@@H]3CCCNC3)nc12,50 to 500
6,CC(C)c1cnn2c(NCc3ccccc3-n3cncn3)nc([S+]([O-])C3CCNCC3)nc12 (stereo unspecified),50 to 500
7,CC(C)c1cnn2c(NCc3ccccc3-n3cncn3)nc(O[C@@H]3CCNC3)nc12,≤ 50
8,CC(C)c1cnn2c(NCc3ccccc3-n3ccnc3)nc(O[C@@H]3CCCNC3)nc12,50 to 500
9,CC(C)c1cnn2c(NCc3cccc4c3OCCCO4)nc(O[C@@H]3CCCNC3)nc12,50 to 500
10,CC(C)c1cnn2c(NCc3ccccc3-n3cccn3)nc(O[C@@H]3CCCNC3)nc12,≤ 50
11,CC(C)c1cnn2c(NCc3ccccc3Cl)nc(OC3CCN(C)CC3)nc12,50 to 500
12,CC(C)c1cnn2c(NCc3ccccc3-n3cccn3)nc(S[C@@H]3CCCNC3)nc12,50 to 500
13,CC(C)c1cnn2c(NCc3ccccc3-c3cccs3)nc([S+]([O-])C3CCNCC3)nc12 (stereo unspecified),50 to 500
14,CC(C)c1cnn2c(NCc3ccccc3-c3cccs3)nc(O[C@@H]3CCNC3)nc12,50 to 500
15,CC(C)c1cnn2c(NCc3ccccc3-c3cccs3)nc(OC3CCN(C)CC3)nc12,50 to 500
16,CC(C)c1cnn2c(NCc3ccccc3-n3cccn3)nc(N3CCC(N(C)C)CC3)nc12,50 to 500
17,CC(C)c1cnn2c(NCc3cccc4[nH]ncc34)nc(O[C@@H]3CCCNC3)nc12,≤ 50
18,CC(C)c1cnn2c(NCc3ccccc3-c3cccs3)nc(O[C@@H]3CCCNC3)nc12,≤ 50
